Assay results reported in patent US20260008760A1, “DIPEPTIDYL PEPTIDASE 1 INHIBITORS AND USES THEREOF” (Insmed Incorporated, priority 2024, published 2026).
Where “and” joins values, the source holds several entries; their conditions need not be identical. Identical values can stand only once. Like-named read-outs stand apart in the source and are kept apart here.

How the values were obtained:
human DPP1 enzyme [1] = biological target: T1, human DPP1 enzyme (Homo sapiens, UniProt P53634); assay: Human DPP1 Enzyme Single-Point Percent Inhibition Testing (HL-60 lysate); assay type: biochemical; parameters: A crude lysate of HL-60 cells (ATCC; Manassas, VA) was used as a source of human DPP1 enzyme; host or cells: HL-60 cells (crude lysate); conditions: final compound concentration of 10 nM, 400 μM H-Gly-Arg-AMC, n = 1
Outline: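 Enzyme source was HL-60 cell lysate in MES pH 6.0 buffer with NaCl and DTT, pre-incubated 10 min at 37° C with 10 nM compound (final, 1% DMSO). Cleavage of 400 μM H-Gly-Arg-AMC was followed at 350/450 nm over 90 min at 37° C, and percent inhibition was taken against vehicle wells.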
Target sequence in this assay (P53634 25-463): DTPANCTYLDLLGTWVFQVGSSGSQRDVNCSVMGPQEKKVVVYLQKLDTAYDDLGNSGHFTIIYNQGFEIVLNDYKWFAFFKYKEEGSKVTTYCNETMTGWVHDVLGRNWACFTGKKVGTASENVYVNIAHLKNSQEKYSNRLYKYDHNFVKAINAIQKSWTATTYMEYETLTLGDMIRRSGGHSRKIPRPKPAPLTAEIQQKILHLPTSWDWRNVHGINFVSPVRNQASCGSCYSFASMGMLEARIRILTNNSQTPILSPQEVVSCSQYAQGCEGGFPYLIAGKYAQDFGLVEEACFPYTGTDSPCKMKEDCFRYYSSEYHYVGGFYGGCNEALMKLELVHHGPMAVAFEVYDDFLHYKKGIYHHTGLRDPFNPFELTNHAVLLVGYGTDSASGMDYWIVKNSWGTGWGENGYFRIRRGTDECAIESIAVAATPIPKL

DPP1 in HL-60 cells [2] = biological target: T2, DPP1 in HL-60 cells (Homo sapiens, UniProt P53634); assay: DPP1 Cell Single-Point Percent Inhibition Testing; assay type: cell-based; parameters: host or cells: HL-60 cells; conditions: final compound concentration 5 nM, n = 1
T2 sequence (P53634 25-463): as above
Outline: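 HL-60 cells in unsupplemented RPMI preincubated 60 min at 37 °C with test article (5 nM final, 0.1% DMSO), then given cell-permeable H-Gly-Phe-AFC (100 μM final) for 30 min. Fluorescence at 400/505 nm; percent inhibition versus vehicle after subtracting cell-free background and 10 μM brensocatib non-specific signal.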

DPP1 in HL-60 cells [3] = biological target: T2, DPP1 in HL-60 cells; assay: DPP1 Cell IC50 assay; assay type: cell-based; parameters: host or cells: HL-60 cells; conditions: 60 min pre-incubation, H-Gly-Phe-AFC substrate, average of n runs
Outline: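 HL-60 cells in PBS (5×10^5 live cells per mL) pre-incubated with compound (0.5% DMSO) 60 min at 37° C, 5% CO2, then H-Gly-Phe-AFC substrate (500 μM stock) added for 30 min. Fluorescence at 400/505 nm; % inhibition vs vehicle wells, IC50 from four-parameter logistic fit.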

human DPP1 enzyme [4] = biological target: T1, human DPP1 enzyme; assay: Human DPP1 Enzyme IC50 Assay; assay type: biochemical; parameters: was first proteolytically processed into its mature form using recombinant human cathepsin L; purchased R&D Systems
Outline: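 Recombinant human DPP1, pre-activated with cathepsin L (pH 4.5), was preincubated with compound 10 min at 37 °C in MES pH 6.0, 50 mM NaCl, 5 mM DTT, 1% DMSO. Cleavage of 400 μM (final) H-Gly-Arg-AMC followed by fluorescence (350/450 nm) over 90 min at 37 °C; IC50 from four-parameter logistic fit versus no-compound control.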
Target sequence in this assay (P53634 25-134 limits assumed): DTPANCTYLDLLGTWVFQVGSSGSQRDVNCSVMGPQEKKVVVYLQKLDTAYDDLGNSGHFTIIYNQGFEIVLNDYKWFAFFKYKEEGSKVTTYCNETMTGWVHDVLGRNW
Target sequence in this assay (P53634 231-394 limits assumed): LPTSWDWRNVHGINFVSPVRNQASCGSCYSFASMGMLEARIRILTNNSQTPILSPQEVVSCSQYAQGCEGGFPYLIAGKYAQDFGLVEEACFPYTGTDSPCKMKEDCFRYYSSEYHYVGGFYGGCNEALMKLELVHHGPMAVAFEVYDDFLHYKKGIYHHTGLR
Target sequence in this assay (P53634 395-463 limits assumed): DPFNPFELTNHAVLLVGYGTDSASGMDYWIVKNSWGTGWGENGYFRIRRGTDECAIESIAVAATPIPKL

[5] = read-out: Avg. IC50 (DPP1 Cell IC50 value ranges)
[6] = activated recombinant human DPP1, 400 μM H-Gly-Arg-AMC, 10 minutes pre-incubation at 37° C., pH 6.0, average of n runs, read-out: Avg. IC50 (Human DPP1 enzyme IC50 value ranges)
[7] = Avg. IC50 (DPP1 Cell IC50 value ranges)

SMILES | inhibition at 0.01 µM (human DPP1 enzyme [1]) [%] | inhibition at 0.005 µM (DPP1 in HL-60 cells [2]) [%] | IC50 (DPP1 in HL-60 cells [3]; [5]) | IC50 (human DPP1 enzyme [4]; [6]) | IC50 (DPP1 in HL-60 cells [3]; [7]) [nM] | IC50 (human DPP1 enzyme [4]) [nM]
N#C[C@H](Cc1ccc(-c2ccc(S(=O)(=O)N3CCC3)cc2)cc1)NC(=O)[C@@H]1CNCCCO1 [Compound 19, (S)—N—((S)-2-(4′-(azetidin-1-ylsulfonyl)-[1,1′-biphenyl]-4-yl)-1-cyanoethyl)-1,4-oxazepane-2-carboxamide] | ≤ 40 | ≤ 76.5 | > 2.5 nM | > 15 nM |  | 
COC1CNC[C@@H](C(=O)N[C@H](C#N)Cc2ccc(-c3cc4c(C)nc(C)cn4c3)cc2F)OC1 (stereo partly drawn) [Compound A88] | ≥ 66.7 | 76.5 to 93.9 | 1 to 2.5 nM | < 5 nM |  | 
CO[C@H]1CCO[C@H](C(=O)N[C@H](C#N)Cc2ccc(-c3cc4c(C)nc(C)cn4c3)cc2)CNC1 [Compound A92] | ≤ 40 | ≤ 76.5 | > 2.5 nM and 1 to 2.5 nM | > 15 nM |  | 
C[C@@H]1NC[C@@H](C(=O)N[C@H](C#N)Cc2ccc(-c3ccc4c(n3)CCCN4)cc2)OC[C@@H]1O [Compound A105] | ≤ 40 | ≤ 76.5 | > 2.5 nM | > 15 nM |  | 
C[C@@H]1NC[C@@H](C(=O)N[C@H](C#N)Cc2ccc(-c3cnc4c(n3)CCCC4)cc2F)OC[C@@H]1O [Compound A109] | 40 to 66.7 | ≤ 76.5 | > 2.5 nM and 1 to 2.5 nM | 5 to 15 nM and < 5 nM |  | 
Cc1ncc(C)n2cc(-c3ccc(C[C@@H](C#N)NC(=O)[C@@H]4CNCCCCO4)cc3)cc12 [Compound A137] | ≤ 40 | 76.5 to 93.9 | 1 to 2.5 nM | > 15 nM |  | 
Cc1nc(C)c2cc(-c3ccc(C[C@@H](C#N)NC(=O)[C@@H]4CNCCCCO4)cc3)cn2c1C [Compound A138] | ≤ 40 | 76.5 to 93.9 | < 1 nM | > 15 nM |  | 
N#C[C@H](Cc1ccc(-c2ccn3ccnc3c2)cc1)NC(=O)[C@@H]1CNCCCO1 [Compound A142] | ≤ 40 | ≤ 76.5 | > 2.5 nM | > 15 nM |  | 
N#Cc1ccc2c(c1)CSc1cc(C[C@@H](C#N)NC(=O)[C@@H]3CNCCCCO3)c(F)cc1-2 [Compound B17] | 40 to 66.7 | ≤ 76.5 | > 2.5 nM | 5 to 15 nM |  | 
N#Cc1ccc2c(c1)COc1cc(C[C@@H](C#N)NC(=O)[C@@H]3CNCCCO3)c(F)cc1-2 [Compound B32] | 40 to 66.7 | 76.5 to 93.9 |  |  | 1 to 2.5 | 5 to 15
N#Cc1ccc2c(c1)-c1cc(F)c(CC(C#N)NC(=O)[C@@H]3CNCCCO3)cc1OC2 (stereo partly drawn) [Compound B33] | ≤ 40 | ≤ 76.5 |  |  | > 2.5 | > 15
Cn1c(=O)oc2cc3c(cc21)-c1cc(F)c(C[C@@H](C#N)NC(=O)[C@@H]2CNCCCCO2)cc1SC3 [Compound C8] | ≥ 66.7 | ≤ 76.5 | 1 to 2.5 nM | < 5 nM |  | 
Cn1c(=O)oc2ccc3c(c21)COc1cc(CC(C#N)NC(=O)[C@@H]2CNCCCO2)c(F)cc1-3 (stereo partly drawn) [Compound C29] | ≤ 40 | ≤ 76.5 | > 2.5 nM and 1 to 2.5 nM | > 15 nM |  | 
N#C[C@H](Cc1cc2c(cc1F)-c1cc3c(cc1CO2)COC31CCN(C2COC2)CC1)NC(=O)[C@@H]1CNCCCO1 [Compound C31] | ≥ 66.7 | ≤ 76.5 | > 2.5 nM | < 5 nM |  | 
N#C[C@H](Cc1cc2c(cc1F)-c1cc3c(cc1CO2)COC31CCN(C2COC2)CC1)NC(=O)[C@@H]1CNCCCCO1 [Compound C32] | ≥ 66.7 | ≤ 76.5 | > 2.5 nM | < 5 nM |  | 
CO[C@H]1CCO[C@H](C(=O)N[C@H](C#N)Cc2ccc(-c3ccc4c(c3)C3(CCN(C5COC5)CC3)OC4)cc2F)CNC1 [Compound F5] | ≥ 66.7 | ≤ 76.5 | 1 to 2.5 nM | < 5 nM |  | 
CO[C@@H]1CCNC[C@@H](C(=O)N[C@H](C#N)Cc2ccc(-c3ccc4c(c3)C3(CCN(C5COC5)CC3)OC4)cc2F)OC1 [Compound F6] | ≥ 66.7 | ≤ 76.5 | > 2.5 nM | < 5 nM |  | 
CCN1C(=O)Cc2ccc(-c3ccc(C[C@@H](C#N)NC(=O)[C@@H]4CNCC[C@@H](OC)CO4)c(F)c3)cc21 [Compound G2] | ≥ 66.7 | ≤ 76.5 | 1 to 2.5 nM | < 5 nM |  | 
CCN1C(=O)Cc2ccc(-c3ccc(C[C@@H](C#N)NC(=O)[C@@H]4CN[C@@H](C)[C@@H](O)CO4)cc3)cc21 [Compound G9] | ≤ 40 | ≤ 76.5 | > 2.5 nM | > 15 nM |  | 
CCN1C(=O)Cc2ccc(-c3ccc(C[C@@H](C#N)NC(=O)[C@@H]4CN[C@@H](C)[C@@H](O)CO4)c(F)c3)cc21 [Compound G10] | 40 to 66.7 | ≤ 76.5 | > 2.5 nM | 5 to 15 nM |  | 
CCN1C(=O)Cc2ccc(-c3ccc(C[C@@H](C#N)NC(=O)[C@@H]4CNCCCO4)cc3)cc21 [Compound G11] | ≤ 40 | ≤ 76.5 | > 2.5 nM | > 15 nM |  | 
CCN1C(=O)Cc2ccc(-c3ccc(C[C@@H](C#N)NC(=O)[C@@H]4CNCCCO4)c(F)c3)cc21 [Compound G12] | 40 to 66.7 | ≤ 76.5 | > 2.5 nM and 1 to 2.5 nM | 5 to 15 nM |  | 
CO[C@@H]1CCNC[C@@H](C(=O)N[C@H](C#N)Cc2ccc(-c3ccc4cnn(C)c4c3)cc2)OC1 [Compound H5] | ≥ 66.7 | 76.5 to 93.9 | 1 to 2.5 nM | 5 to 15 nM |  | 
COC1CNC[C@@H](C(=O)N[C@H](C#N)Cc2ccc(-c3ccc4nnn(C)c4c3)cc2)OC1 (stereo partly drawn) [Compound H12] | ≥ 66.7 | ≤ 76.5 | > 2.5 nM and 1 to 2.5 nM | < 5 nM |  | 
C[C@@H]1NC[C@@H](C(=O)N[C@H](C#N)Cc2ccc(-c3ccc4cnn(C)c4c3)cc2F)OC[C@@H]1O [Compound H31] | 40 to 66.7 | ≤ 76.5 | 1 to 2.5 nM | 5 to 15 nM and > 15 nM |  | 
CN1CC[C@]2(C1)C(=O)OCc1ccc(-c3ccc(C[C@@H](C#N)NC(=O)[C@@H]4CNCCCO4)cc3)cc12 [Compound I2] | 40 to 66.7 | ≤ 76.5 | > 2.5 nM | 5 to 15 nM |  | 
CCCN1CCC2(CC1)SCCc1ccc(-c3ccc(C[C@@H](C#N)NC(=O)[C@@H]4CNCCCO4)cc3)cc12 [Compound I3] | ≥ 66.7 | ≤ 76.5 | > 2.5 nM | 5 to 15 nM |  | 
